Tests used:
Format in all cases: cell-based
[1] = test system: Saccharomyces cerevisiae strain SU52-pUR5801; test: Cell wall protein release test (secretion of α-galactosidase-CWP2p fusion protein, α-galactosidase activity in the medium); conditions: β-gentiobiose 10, 50 and 100 mM in YEPD with 5% galactose, 30 °C, 18 hours; linear up to 100 mM (Fig. 1)
Experimental: (§1) • a) Saccharomyces cerevisiae strain SU52-pUR 5801 was grown in YNB and YEPD media, at 30°C with shaking at 225 rpm in an orbital incubator until a OD (660 nm) between 5 and 6 was reached. In parallel experiments several concentrations of β-gentiobiose or pustulan fragments were included in the media. After cultivation, the media were separated from the cells by centrifugation (10.000 x g for 15 mm at 4°C). The media were then filtered using 0.22 µM filters. Secretion of α-galactosidase-CWP2p was assessed by measuring α-galactosidase enzyme activity in the media (see further on). • b) Growth curves were obtained with the strain SU-50. The cells (about 10 per ml) were cultured in YEPD at 25°C in the presence or absence of β-gentiobiose or pustulan fragments and MB-21, by using a 24 well plate at room temperature with continuous shaking on a micro-titre plate shaker (mark 4) or a microbiology growth reader (Bioscreen C).
α-Galactosidase activity was determined at 37°C using p-nitrophenyl α-D-galactopyranoside (PNPG) as substrate in 0.1 M potassium acetate buffer, pH 5.0. […] The extinction of the liberated p-nitrophenolate was recorded at 405 nm.
β-Gentiobiose was dissolved in YEPD media supplemented with 5% galactose, in concentrations of 10, 50 and 100 mM respectively. […] The enzyme activity of the fusion protein CWP2-α-galactosidase was measured as described in the α-galactosidase assay. […]

[2] = test system: Saccharomyces cerevisiae wild type strain SU-50; test: Growth curves / growth inhibition of yeast strain SU-50; conditions: for effect on growth: comparative sugar 25 mM with 25 µM MB21, strain SU50, 100 cells per ml, versus reference (no sugar, no MMAS) and MB21 alone (Fig. 5a)
Experimental: (§2) For examples 2, and 4-9 grow-curves were recorded at 25°C using a microbiology growth reader (Bioscreen C, ex Labsystems). For example 3, growth curve was determined as turbidity, measured by hand at a wave length of 660 nm (OD 660).
as §1
(§3) Three YEPD media were prepared, one without MB21, the other YEPD media contained 10 µM MB21 and 20 µM MB21, respectively. To these media β-gentiobiose was added in concentrations of 0, 50, 100 and 200 mM. The yeast strain SU50 was inoculated in these media in a concentration of 10 cells per ml, and cultivated in a 24 well plate at 25°C. Samples were taken from a 24 well plate at regular time intervals, diluted sixty times with distilled water and measured at 660 nm to construct the growth curves. […] However, if the sub-lethal concentrations of MB21 and β-gentiobiose are combined, a clear reduction in growth potential of SU50 (10 cells per ml) was observed.
This example illustrates a relationship between the length of the β-(1,6)-glucan fragments and their effectiveness in competition. When the same concentration of MB21 (20 µM) was used [about 50 cells per ml] was used, a glucan fragment was obtained from pustulan with an average MW of 686, which was at least hundred times as effective as β-gentiobiose, as shown in Fig. 4.
(§4) In this example, three strains are grown in various media in the fashion of example 3, with the exception of being inoculated in the media in a concentration of 100 cells per ml. The sugars used are all comparatives: laminaribiose (β-1,3)-linked D-glucose), sucrose (having a 1,2 link), and sorbitol.
In this example, strain SU 50 was grown three media (see table 2) in the fashion of example 3, with the exception of being inoculated in the media in a concentration of 100 cells per ml.

[3] = test system: Zygosaccharomyces bailii ZB (NCYC 563); test: Growth curves / growth inhibition of yeast strain ZB; conditions: comparative sugar 200 mM with 6 µM MB21, strain ZB, 100 cells per ml; versus reference and MB21 alone (Fig. 5b)
Experimental: as §2, §3, §4
In this example, strain ZB was grown three media (see table 3) in the fashion of example 3, with the exception of being inoculated in the media in a concentration of 100 cells per ml.

[4] = test system: Zygosaccharomyces bailii G1; test: Growth curves / growth inhibition of yeast strain G1; conditions: comparative sugar 200 mM with 6 µM MB21, strain G1, 100 cells per ml; versus reference and MB21 alone (Fig. 5c)
Experimental: as §2, §3, §4
In this example, strain G1 was grown three media (see table 4) in the fashion of example 3, with the exception of being inoculated in the media in a concentration of 100 cells per ml. […]

## OC[C@H]1O[C@@H](OC[C@H]2O[C@@H](O)[C@H](O)[C@@H](O)[C@@H]2O)[C@H](O)[C@@H](O)[C@@H]1O [β-Gentiobiose, 6-O-β-D-glucopyranosyl-β-D-glucose]
[1]
  release of the fusion protein α-galactosidase-CW2p from the cell wall: concentration dependent
[2]; β-gentiobiose as such (0, 50, 100, 200 mM), no MB21, 10 cells per ml, 25°C, OD 660 (Fig. 3)
  growth of SU-50: no influence

## OC[C@H]1O[C@@](CO)(O[C@H]2O[C@H](CO)[C@@H](O)[C@H](O)[C@H]2O)[C@@H](O)[C@@H]1O [sucrose]
[2]
  effect on growth: stimulating effect
[3]
  effect on growth: stimulating effect
[4]
  effect on growth: stimulating effect

## OC[C@H]1O[C@@H](O[C@H]2[C@H](O)[C@@H](CO)OC(O)[C@@H]2O)[C@H](O)[C@@H](O)[C@@H]1O (stereo partly drawn) [laminaribiose]
[2]
  effect on growth: stimulating effect

## OC[C@@H](O)[C@@H](O)[C@H](O)[C@@H](O)CO [sorbitol]
[2]
  effect on growth: stimulating effect
[3]
  effect on growth: stimulating effect
[4]
  effect on growth: stimulating effect
